Measured values published in patent US20030095958A1, “Inhibitors of bace” (priority 2001, published 2003).

Each compound was assayed against BACE (Homo sapiens, UniProt P56817) (assay: Ki Determination for the Inhibition of BACE (FS-1 peptide fluorescence cleavage assay)). Conditions: apparent Ki; 50 nM BACE, 10 μM FS-1 substrate, 0.1M sodium acetate pH 4.5.
Type: biochemical
Summary of the method: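 Apparent Ki values derive from fitting fluorescence progress data (355 nm excitation, 495 nm emission) of FS-1 peptide cleavage to an integrated competitive tight-binding model. Reactions held 50 nM BACE, 10 μM substrate and inhibitor in 2% DMSO, pH 4.5 acetate buffer, with a 15 min enzyme-compound preincubation at room temperature.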

Sequence of BACE (P56817 46-501): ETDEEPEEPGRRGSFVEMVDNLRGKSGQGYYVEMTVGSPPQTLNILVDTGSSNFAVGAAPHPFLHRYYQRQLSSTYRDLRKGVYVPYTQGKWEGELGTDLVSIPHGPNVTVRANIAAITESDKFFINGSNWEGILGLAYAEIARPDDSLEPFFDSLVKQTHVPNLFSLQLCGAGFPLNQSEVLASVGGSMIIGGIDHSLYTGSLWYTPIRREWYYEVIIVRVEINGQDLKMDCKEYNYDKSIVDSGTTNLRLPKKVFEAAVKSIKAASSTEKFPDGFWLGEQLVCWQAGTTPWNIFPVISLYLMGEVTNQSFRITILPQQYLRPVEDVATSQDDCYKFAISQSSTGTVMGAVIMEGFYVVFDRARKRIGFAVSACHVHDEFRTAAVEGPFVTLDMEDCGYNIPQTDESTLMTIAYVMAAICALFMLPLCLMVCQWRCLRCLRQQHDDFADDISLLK

| Structure (SMILES) | Ki |
| --- | --- |
| Cc1cc(N2CCNCC2)c(NC(=O)c2cccc3ccccc23)cc1-c1ccc(Cl)c(Cl)c1 [Compound 138, Naphthalene-1-carboxylic acid (3′,4′-dichloro-6-methyl-4-piperazin-1-yl-biphenyl-3-yl)-amide] | < 3 µM |
| O=C(NCc1ccccc1OC(F)(F)F)C1CNCCC1c1ccc(COc2ccccc2C(F)(F)F)cc1 (stereo not drawn) [Compound 208, 4-[4-(2-Trifluoromethyl-phenoxymethyl)-phenyl]-piperidine-3-carboxylic acid 2-trifluoromethoxy-benzylamide] | > 30 µM |
| FC(F)(F)c1ccccc1OCc1ccc(COc2ccccc2C(F)(F)F)c(C2=CCNCC2)c1 [Compound 303, 4-[2,5-Bis-(2-trifluoromethyl-phenoxymethyl)-phenyl]-1,2,3,6-tetrahydro-pyridine] | < 3 µM |
| O=C1CCCc2c(OCc3ccc(COc4ccccc4C(F)(F)F)cc3C3=CCNCC3)cccc21 [Compound 331, 5-[2-(1,2,3,6-Tetrahydro-pyridin-4-yl)-4-(2-trifluoromethyl-phenoxymethyl)-benzyloxy]-3,4-dihydro-2H-naphthalen-1-one] | < 3 µM |
| O=C(NC(Cc1ccccc1)C(=O)N1CCCC1C(=O)NCC1CNCCC1c1ccc(COc2ccccc2C(F)(F)F)cc1)OCc1ccccc1 (stereo not drawn) [Compound 223, {1-Benzyl-2-oxo-2-[2-({4-[4-(2-trifluoromethyl-phenoxymethyl)-phenyl]-piperidin-3-ylmethyl}-carbamoyl)-pyrrolidin-1-yl]-ethyl}-carbamic acid benzyl ester] | 3 to 30 µM |
| O=C(NCc1ccco1)C1CNCCC1c1ccc(COc2ccccc2C(F)(F)F)cc1 (stereo not drawn) [Compound 203, 4-[4-(2-Trifluoromethyl-phenoxymethyl)-phenyl]-piperidine-3-carboxylic acid (furan-2-ylmethyl)-amide] | > 30 µM |
| NC(=O)c1cccc(-c2cc(COc3ccccc3C(F)(F)F)c(C3=CCNCC3)cc2COc2ccccc2C(F)(F)F)c1 [Compound 364, 4′-(1,2,3,6-Tetrahydro-pyridin-4-yl)-2′,5′-bis-(2-trifluoromethyl-phenoxymethyl)-biphenyl-3-carboxylic acid amide] | < 3 µM |
| O=C(OCc1ccc(COc2ccccc2C(F)(F)F)cc1C1=CCNCC1)c1ccc2c(c1)OCO2 [Compound 316, Benzo[1,3]dioxole-5-carboxylic acid 2-(1,2,3,6-tetrahydro-pyridin-4-yl)-4-(2-trifluoromethyl-phenoxymethyl)-benzyl ester] | 3 to 30 µM |
| O=C(Nc1cc(-c2cc(Cl)cc(Cl)c2Cl)ccc1N1CCNCC1)c1cccc2ccccc12 [Compound 109, Naphthalene-1-carboxylic acid (2′,3′,5′-trichloro-4-piperazin-1-yl-biphenyl-3-yl)-amide] | < 3 µM |
| O=C(OCc1ccc(COc2ccccc2C(F)(F)F)cc1C1=CCNCC1)c1ccc2ccccc2c1 [Compound 313, Naphthalene-2-carboxylic acid 2-(1,2,3,6-tetrahydro-pyridin-4-yl)-4-(2-trifluoromethyl-phenoxymethyl)-benzyl ester] | < 3 µM |
| O=C(O)C1CCCCC1C(=O)NCC1CNCCC1c1ccc(COc2ccccc2C(F)(F)F)cc1 (stereo not drawn) [Compound 207, 2-({4-[4-(2-Trifluoromethyl-phenoxymethyl)-phenyl]-piperidin-3-ylmethyl}-carbamoyl)-cyclohexanecarboxylic acid] | > 30 µM |
| COc1ccc(-c2cc(COc3ccccc3C(F)(F)F)c(C3=CCNCC3)cc2COc2ccccc2C(F)(F)F)cc1 [Compound 365, 4-[4′-Methoxy-2,5-bis-(2-trifluoromethyl-phenoxymethyl)-biphenyl-4-yl]-1,2,3,6-tetrahydro-pyridine] | < 3 µM |
| O=C(Nc1cc(-c2cc(F)c(C(F)(F)F)cc2F)ccc1N1CCNCC1)c1cccc2ccccc12 [Compound 162, Naphthalene-1-carboxylic acid (2′,5′-difluoro-4-piperazin-1-yl-4′-trifluoromethyl-biphenyl-3-yl)-amide] | < 3 µM |
| O=C(C1CNCCC1c1ccc(COc2ccccc2C(F)(F)F)cc1)N1CCc2ccccc2C1 (stereo not drawn) [Compound 205, (3,4-Dihydro-1H-isoquinolin-2-yl)-{4-[4-(2-trifluoromethyl-phenoxymethyl)-phenyl]-piperidin-3-yl}-methanone] | > 30 µM |
| Cc1cccc(-c2ccc(N3CCNCC3)c(NC(=O)c3cccc4ccccc34)c2)c1 [Compound 126, Naphthalene-1-carboxylic acid (3′-methyl-4-piperazin-1-yl-biphenyl-3-yl)-amide] | 3 to 30 µM |
| O=C(Nc1cc(-c2cccc(C(F)(F)F)c2)ccc1N1CCNCC1)c1cccc2ccccc12 [Compound 128, Naphthalene-1-carboxylic acid (4-piperazin-1-yl-3′-trifluoromethyl-biphenyl-3-yl)-amide] | 3 to 30 µM |
| FC(F)(F)c1ccccc1OCc1cc(-c2ccccc2Cl)c(COc2ccccc2C(F)(F)F)cc1C1=CCNCC1 [Compound 348, 4-[2′-Chloro-2,5-bis-(2-trifluoromethyl-phenoxymethyl)-biphenyl-4-yl]-1,2,3,6-tetrahydro-pyridine] | < 3 µM |

Next, values leading:

| Ki | Structure (SMILES) |
| --- | --- |
| 3 to 30 µM | O=C(Nc1cc(-c2ccsc2)ccc1N1CCNCC1)c1cccc2ccccc12 [Compound 153, Naphthalene-1-carboxylic acid (2-piperazin-1-yl-5-thiophen-3-yl-phenyl)-amide] |
| < 3 µM | O=C(Nc1cc(-c2ccc(O)cc2)c(COc2ccccc2C(F)(F)F)cc1N1CCNCC1)c1nccc2ccccc12 [Compound 186, Isoquinoline-1-carboxylic acid [4′-hydroxy-4-piperazin-1-yl-6-(2-trifluoromethyl-phenoxymethyl)-biphenyl-3-yl]-amide] |
| < 3 µM | FC(F)(F)c1ccccc1OCc1ccc(COc2ccccc2C(F)(F)F)c(N2CCNCC2)c1 [Compound 116, 1-[2,5-Bis-(2-trifluoromethyl-phenoxymethyl)-phenyl]-piperazine] |
| < 3 µM | O=C(c1ccc2ccccc2c1)n1c2c(c3cc(OCc4ccc(C(F)(F)F)cc4)ccc31)CCNC2 [Compound 536, Naphthalen-2-yl-[6-(4-trifluoromethyl-benzyloxy)-1,2,3,4-tetrahydro-b-carbolin-9-yl]-methanone] |
| 3 to 30 µM | O=C(NCC1CNCCC1c1ccc(COc2ccccc2C(F)(F)F)cc1)c1cccc2ccccc12 (stereo not drawn) [Compound 221, Naphthalene-1-carboxylic acid {4-[4-(2-trifluoromethyl-phenoxymethyl)-phenyl]-piperidin-3-ylmethyl}-amide] |
| 3 to 30 µM | O=c1cc(-c2ccccc2)nc(C2CCNCC2)n1Cc1ccc2ccccc2c1 [Compound 218, 3-Naphthalen-2-ylmethyl-6-phenyl-2-piperidin-4-yl-3H-pyrimidin-4-one] |
| 3 to 30 µM | O=C(Nc1ccc2ccccc2c1)NC1CNCCC1c1ccc(-c2ccccc2)cc1 (stereo not drawn) [Compound 403] |
| 3 to 30 µM | O=C(Nc1cc(Oc2cccc(Cl)c2)ccc1N1CCNCC1)c1cccc2ccccc12 [Compound 139, Naphthalene-1-carboxylic acid [5-(3-chloro-phenoxy)-2-piperazin-1-yl-phenyl]-amide] |
| 3 to 30 µM | CC(NC(=O)C1CNCCC1c1ccc(-c2ccccc2)cc1)c1cccc2ccccc12 (stereo not drawn) [Compound 406] |
| 3 to 30 µM | FC(F)(F)c1ccccc1OCc1cc(C2=CCNCC2)c(COc2ccccc2C(F)(F)F)cc1C1=CCNCC1 [Compound 334, 4-[4-(1,2,3,6-Tetrahydro-pyridin-4-yl)-2,5-bis-(2-trifluoromethyl-phenoxymethyl)-phenyl]-1,2,3,6-tetrahydro-pyridine] |
| < 3 µM | O=C(Nc1ccc(-c2ccc(Cl)c(Cl)c2)nc1N1CCNCC1)c1cccc2ccccc12 [Compound 227, Naphthalene-1-carboxylic acid [6-(3,4-dichloro-phenyl)-2-piperazin-1-yl-pyridin-3-yl]-amide] |
| < 3 µM | FC(F)(F)c1ccccc1OCc1cc(-c2ccccc2)c(COc2ccccc2C(F)(F)F)cc1C1=CCNCC1 [Compound 306, 4-[2,5-Bis-(2-trifluoromethyl-phenoxymethyl)-biphenyl-4-yl]-1,2,3,6-tetrahydro-pyridine] |
| < 3 µM | CC(C)NC(=O)C1CN(c2ccc(-c3ccc(C(F)(F)F)cc3)cc2NCc2ccc3ccccc3c2)CCN1 (stereo not drawn) [Compound 193, 4-{3-[(Naphthalen-2-ylmethyl)-amino]-4′-trifluoromethyl-biphenyl-4-yl}-piperazine-2-carboxylic acid isopropylamide] |
| < 3 µM | O=C(Nc1cc(-c2ccc(Cl)c(Cl)c2)ccc1N1CCNCC1)c1cccc2ccccc12 [Compound 130, Naphthalene-1-carboxylic acid (3′,4′-dichloro-4-piperazin-1-yl-biphenyl-3-yl)-amide] |
| < 3 µM | O=C(Nc1ccc(COc2ccccc2C(F)(F)F)cc1N1CCNCC1)c1nccc2ccccc12 [Compound 178, Isoquinoline-1-carboxylic acid [2-piperazin-1-yl-4-(2-trifluoromethyl-phenoxymethyl)-phenyl]-amide] |
| 3 to 30 µM | O=Cc1cc(-c2ccc(N3CCNCC3)c(NC(=O)c3cccc4ccccc34)c2)ccc1F [Compound 105, Naphthalene-1-carboxylic acid (4′-fluoro-3′-formyl-4-piperazin-1-yl-biphenyl-3-yl)-amide] |
| < 3 µM | COC(=O)c1cc(OCc2ccc(COc3ccccc3C(F)(F)F)cc2C2=CCNCC2)cc(C(=O)OC)c1 [Compound 330, 5-[2-(1,2,3,6-Tetrahydro-pyridin-4-yl)-4-(2-trifluoromethyl-phenoxymethyl)-benzyloxy]-isophthalic acid dimethyl ester] |
| > 30 µM | O=C(Nc1cc(C(F)(F)F)ccc1N1CCCNCC1)c1cccc2ccccc12 [Compound 201, Naphthalene-1-carboxylic acid (2-[1,4]diazepan-1-yl-5-trifluoromethyl-phenyl)-amide] |
| 3 to 30 µM | OC1CNCC(COc2ccc3ccccc3c2)C1(O)c1ccc(-c2ccccc2)cc1 (stereo not drawn) [Compound 412] |
